The record followed here is US20250049970A1, “DLL3 TARGETING PEPTIDES AND CONSTRUCTS THEREOF” (MARIANA ONCOLOGY INC., priority 2023, published 2025).

The target in this assay is T1, DLL3 (Homo sapiens, UniProt Q9NYJ7).
T1 sequence (Q9NYJ7 27-618): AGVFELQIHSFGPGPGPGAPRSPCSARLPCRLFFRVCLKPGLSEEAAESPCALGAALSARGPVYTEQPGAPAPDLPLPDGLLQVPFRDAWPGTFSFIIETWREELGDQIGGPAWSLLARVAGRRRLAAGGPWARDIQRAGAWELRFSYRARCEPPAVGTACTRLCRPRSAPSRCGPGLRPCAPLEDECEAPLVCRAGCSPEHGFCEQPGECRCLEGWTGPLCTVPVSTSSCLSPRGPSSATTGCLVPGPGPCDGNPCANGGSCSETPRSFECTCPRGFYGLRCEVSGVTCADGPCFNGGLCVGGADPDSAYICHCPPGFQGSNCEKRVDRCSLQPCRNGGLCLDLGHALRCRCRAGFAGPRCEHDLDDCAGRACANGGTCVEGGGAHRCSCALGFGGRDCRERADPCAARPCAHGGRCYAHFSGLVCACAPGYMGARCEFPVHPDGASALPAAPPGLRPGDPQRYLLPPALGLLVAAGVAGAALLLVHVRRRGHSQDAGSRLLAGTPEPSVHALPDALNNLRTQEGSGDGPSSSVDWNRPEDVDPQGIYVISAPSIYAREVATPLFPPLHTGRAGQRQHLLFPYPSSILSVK
The assay is described as follows: SPR KD, biotinylated human DLL3 on streptavidin chip (Table 8). The arrangement: biotin (biotinylated). The following applies: biotinylated human DLL3 on streptavidin sensor chip, 25° C., 1:1 binding model; read-out: SPR KD. An excerpt: Biotinylated target ligand human DLL3 was immobilized on a streptavidin sensor chip. A reference surface was set up for nonspecific binding and refractive index changes. […] Sensorgram curves were fitted with 1:1 binding model, and affinity and kinetic parameters were obtained using Biacore Insight evaluation 4.0. software.

*1 amine or outer side, *2 acyl side, *3 side chain or, on linkers, in order; H or OH if unused. Where a SMILES comes first, the peptide text is derived from it. Bridges are numbered along the chain shown (N, C = ends). Side-chain parts run from the residue outwards. [ ]: non-standard residue; d: D form. The star is where a group is joined. X9 = CSCC[C@H](NC(=O)c1ccc(CNC(=O)CN2CCN(CC(=O)O)CCN(CC(=O)O)CCN(CC(=O)O)CC2)cc1)C(=O)N[C@H](C(=O)N[C@@H](CCCCN*)C(=O)O)C(C)C; X7 = O=C(O)CN1CCN(CC(=O)O)CCN(CC(=O)N[C@H]2CC[C@H](CC(=O)*)CC2)CCN(CC(=O)O)CC1; Ala(piperidin-4-yl) = O=C([C@H](CC1CCN([*:3])CC1)N[*:1])[*:2]; DOTA = O=C(O)CN1CCN(CC(=O)O)CCN(CC(=O)*)CCN(CC(=O)O)CC1; X3 = O=C([C@H](CC1CCN(CC(=O)[*:3])CC1)N[*:1])[*:2]; Phe(4-CF3) = N[C@@H](Cc1ccc(C(F)(F)F)cc1)C(=O)O; NMeW = CN[C@@H](Cc1c[nH]c2ccccc12)C(=O)O; 2Nal = N[C@@H](Cc1ccc2ccccc2c1)C(=O)O; NMetBuAla = CN[C@@H](CC(C)(C)C)C(=O)O; Gly(4-THP) = N[C@H](C(=O)O)C1CCOCC1; Ethylenediamine = C(CN[*:2])N[*:1]; X4 = O=C(C(CC1CCNCC1)N[*:1])[*:2]; NMeT = CN[C@H](C(=O)O)[C@@H](C)O; Chg = N[C@H](C(=O)O)C1CCCCC1; NMeNle = CCCC[C@H](NC)C(=O)O; Tle = CC(C)(C)[C@H](N)C(=O)O; CH2 = C([*:1])[*:2] Bounds are passed on as bounds.

Turning to `CC[C@H](C)[C@H](NC(=O)[C@@H](NC(=O)[C@H](Cc1c[nH]c2ccccc12)NC(=O)[C@H](CCSC)NC(C)=O)[C@@H](C)O)C(=O)N[C@H]1CSSC[C@@H](C(=O)N[C@@H](Cc2c[nH]c3ccccc23)C(=O)N[C@H](C)C(N)=O)NC(=O)[C@H](CC(=O)O)NC(=O)[C@H](Cc2cnc[nH]2)NC(=O)[C@H](Cc2c[nH]c3ccccc23)NC(=O)[C@H](CC(N)=O)NC(=O)[C@H](CC(N)=O)NC1=O` [compound 10, Ac-M-W-T-I-C(3)-N-N-W-H-D-C(3)-W-(D-Ala)-CONH2] (Ac-MWTICNNWHDCW[dA]-NH2; disulfide 5-11), the Kd (usually the equilibrium constant for the complex coming apart) was 100 to 300 nM.

As for `CC[C@H](C)[C@H](NC(=O)[C@@H](NC(=O)[C@H](Cc1c[nH]c2ccccc12)NC(=O)[C@H](CCSC)NC(C)=O)[C@@H](C)O)C(=O)N[C@H]1CSSC[C@@H](C(=O)N[C@@H](Cc2c[nH]c3ccccc23)C(=O)N2CCC[C@H]2C(N)=O)NC(=O)[C@H](CC(=O)O)NC(=O)[C@H](Cc2cnc[nH]2)NC(=O)[C@H](Cc2c[nH]c3ccccc23)NC(=O)[C@@H](C)NC(=O)[C@H](CC(N)=O)NC1=O` [compound 39, Ac-M-W-T-I-C(3)-N-(D-Ala)-W-H-D-C(3)-W-P-CONH2] (Ac-MWTICN[dA]WHDCWP-NH2; disulfide 5-11), the Kd fell in the range of 10 to 100 nM.

As for `CC[C@H](C)[C@H](NC(=O)[C@@H](NC(=O)[C@H](Cc1c[nH]c2ccccc12)NC(C)=O)[C@@H](C)O)C(=O)N[C@H]1CSSC[C@@H](C(=O)N[C@@H](Cc2c[nH]c3ccccc23)C(=O)N2CCC[C@H]2C(=O)O)NC(=O)[C@H](CC(=O)O)NC(=O)[C@H](Cc2c[nH]cn2)NC(=O)[C@H](Cc2c[nH]c3ccccc23)N(C)C(=O)[C@H](CC(N)=O)NC(=O)[C@H](CC(N)=O)NC1=O` [compound 386, Ac-W-T-I-C(3)-N-N-(NmeW)-H-D-C(3)-W-P-CONH2] (Ac-WTICNN[NMeW]HDCWP-OH; disulfide 4-10), the Kd was 100 to 300 nM.

For the compound `CCCC[C@@H](C(=O)N[C@H]1CSCSC[C@@H](C(=O)N[C@@H](Cc2c[nH]c3ccccc23)C(=O)N2CCC[C@H]2C(N)=O)NC(=O)[C@H](CC(=O)O)NC(=O)[C@H](CCCCNC(=O)CN2CCN(CC(=O)O)CCN(CC(=O)O)CCN(CC(=O)O)CC2)NC(=O)[C@H](Cc2ccc3ccccc3c2)NC(=O)[C@H](CC(N)=O)NC(=O)[C@H](CC2CCNCC2)NC1=O)N(C)C(=O)[C@@H](NC(=O)[C@H](Cc1c[nH]c2ccccc12)NC(C)=O)[C@@H](C)O` [compound 400, Ac-W-T-(NMe-Nle)-C(1)-[3-(4-piperidinyl)-Ala]-N-(2Nal)-Lys(DOTA)-D-C(1)-W-P-CONH2] (Ac-WT[NMeNle]C[Ala(piperidin-4-yl)]N[2Nal]K(DOTA)DCWP-NH2; linker 4-10 via CH2), the Kd is less than 1 nM.

For the compound `CC(=O)N[C@@H](Cc1c[nH]c2ccccc12)C(=O)N[C@H](C(=O)N(C)[C@@H](CC(C)(C)C)C(=O)N[C@H]1CSCSC[C@@H](C(=O)N[C@@H](Cc2c[nH]c3ccccc23)C(=O)N2CCC[C@H]2C(N)=O)NC(=O)[C@H](CC(=O)O)NC(=O)[C@H](CCCCNC(=O)CN2CCN(CC(=O)O)CCN(CC(=O)O)CCN(CC(=O)O)CC2)NC(=O)[C@H](Cc2ccc3ccccc3c2)NC(=O)[C@H](CC(N)=O)NC(=O)[C@H](CC2CCN(CC(=O)NCCNC(=O)CN3CCN(CC(=O)O)CCN(CC(=O)O)CCN(CC(=O)O)CC3)CC2)NC1=O)[C@@H](C)O` [compound 449] (Ac-WT[NMetBuAla]C[X3]([Ethylenediamine-DOTA])N[2Nal]K(DOTA)DCWP-NH2; linker 4-10 via CH2), the Kd is less than 1 nM.

`CSCC[C@H](NC(=O)c1ccc(CNC(=O)CN2CCN(CC(=O)O)CCN(CC(=O)O)CCN(CC(=O)O)CC2)cc1)C(=O)N[C@H](C(=O)N[C@@H](CCCCNC(=O)CC[C@@H]1NC(=O)[C@H](Cc2ccc3ccccc3c2)NC(=O)[C@H](CC(N)=O)NC(=O)[C@H](CC2CCNCC2)NC(=O)[C@@H](NC(=O)[C@@H](NC(=O)[C@@H](NC(=O)[C@H](Cc2c[nH]c3ccccc23)NC(C)=O)[C@@H](C)O)C2CCOCC2)CSSC[C@@H](C(=O)N[C@@H](Cc2c[nH]c3ccccc23)C(=O)N2CCC[C@H]2C(N)=O)NC(=O)[C@H](CC(=O)O)NC1=O)C(=O)O)C(C)C` [compound 378, Ac-W-T-(THPG)-C(3)-[3-(4-piperidinyl)-Ala]-N-(2Nal)-[Glu(gLys(OH)-Val-Met-AmBz-DOTA)]-D-C(3)-W-P-CONH2] (Ac-WT[Gly(4-THP)]C[Ala(piperidin-4-yl)]N[2Nal]E(X9)DCWP-NH2; disulfide 4-10): the Kd was 1 to 10 nM.

`CC(=O)N[C@@H](Cc1c[nH]c2ccccc12)C(=O)N[C@H](C(=O)N[C@H](C(=O)N[C@H]1CSSC[C@@H](C(=O)N[C@@H](Cc2c[nH]c3ccccc23)C(=O)N2CCC[C@H]2C(N)=O)NC(=O)[C@H](CC(=O)O)NC(=O)[C@H](CCCCNC(=O)CN2CCN(CC(=O)O)CCN(CC(=O)O)CCN(CC(=O)O)CC2)NC(=O)[C@H](Cc2ccc3ccccc3c2)NC(=O)[C@H](CC(N)=O)NC(=O)C(CC2CCNCC2)NC1=O)C1CCOCC1)[C@@H](C)O` (stereo partly drawn) [compound 319, Ac-W-T-(THPG)-C(3)-[3-(4-piperidinyl)-Ala]-N-(2Nal)-Lys(DOTA)-D-C(3)-W-P-CONH2] (Ac-WT[Gly(4-THP)]C[X4]N[2Nal]K(DOTA)DCWP-NH2; disulfide 4-10): the Kd was less than 1 nM.

`CC[C@H](C)[C@H](NC(=O)[C@@H](NC(=O)[C@H](Cc1c[nH]c2ccccc12)NC(C)=O)[C@@H](C)O)C(=O)N[C@H]1CSSC[C@@H](C(=O)N[C@@H](Cc2c[nH]c3ccccc23)C(=O)N2CCC[C@H]2C(N)=O)NC(=O)[C@H](CC(=O)O)NC(=O)[C@H](Cc2c[nH]cn2)NC(=O)[C@H](Cc2ccc(C(F)(F)F)cc2)NC(=O)[C@H](CC(N)=O)NC(=O)[C@H](CC(N)=O)NC1=O` [compound 50, Ac-W-T-I-C(3)-N-N-(4CF3-F)-H-D-C(3)-W-P-CONH2] (Ac-WTICNN[Phe(4-CF3)]HDCWP-NH2; disulfide 4-10): the Kd is 1 to 10 nM.

For `CC[C@H](C)[C@H](NC(=O)[C@@H](NC(=O)[C@H](Cc1c[nH]c2ccccc12)NC(C)=O)[C@@H](C)O)C(=O)N[C@H]1CSSC[C@@H](C(=O)N[C@@H](Cc2c[nH]c3ccccc23)C(=O)N2CCC[C@H]2C(N)=O)NC(=O)[C@H](CC(=O)O)NC(=O)[C@H](CCCCNC(=O)CN2CCN(CC(=O)O)CCN(CC(=O)O)CCN(CC(=O)O)CC2)NC(=O)[C@H](Cc2ccc3ccccc3c2)NC(=O)[C@H](CC(N)=O)NC(=O)[C@H](CC(N)=O)NC1=O` [compound 254] (Ac-WTICNN[2Nal]K(DOTA)DCWP-NH2; disulfide 4-10), the Kd was less than 1 nM.

Regarding `CSCC[C@H](NC(=O)c1ccc(CNC(=O)CN2CCN(CC(=O)O)CCN(CC(=O)O)CCN(CC(=O)O)CC2)cc1)C(=O)N[C@H](C(=O)N[C@@H](CCCCNC(=O)CC[C@@H]1NC(=O)[C@H](Cc2ccc3ccccc3c2)NC(=O)[C@H](CC(N)=O)NC(=O)[C@H](CC2CCNCC2)NC(=O)[C@@H](NC(=O)[C@@H](NC(=O)[C@@H](NC(=O)[C@H](Cc2c[nH]c3ccccc23)NC(C)=O)[C@@H](C)O)C(C)(C)C)CSSC[C@@H](C(=O)N[C@@H](Cc2c[nH]c3ccccc23)C(=O)N2CCC[C@H]2C(N)=O)NC(=O)[C@H](CC(=O)O)NC1=O)C(=O)O)C(C)C` [compound 377] (Ac-WT[Tle]C[Ala(piperidin-4-yl)]N[2Nal]E(X9)DCWP-NH2; disulfide 4-10), the Kd lay in the range of 1 to 10 nM.

With `CC(=O)N[C@@H](Cc1c[nH]c2ccccc12)C(=O)N[C@H](C(=O)N[C@H](C(=O)N[C@H]1CSSC[C@@H](C(=O)N[C@@H](Cc2c[nH]c3ccccc23)C(=O)N2CCC[C@H]2C(N)=O)NC(=O)[C@H](CC(=O)O)NC(=O)[C@H](CCCCNC(=O)CN2CCN(CC(=O)O)CCN(CC(=O)O)CCN(CC(=O)O)CC2)NC(=O)[C@H](Cc2ccc3ccccc3c2)NC(=O)[C@H](CC(N)=O)NC(=O)[C@H](CN2CCOCC2)NC1=O)C(C)(C)C)[C@@H](C)O` (single isomer, unassigned) [compound 304, Ac-W-T-(Tbg)-C(3)-[3-(1-morpholinyl)-Ala]-N-(2Nal)-Lys(DOTA)-D-C(3)-W-P-CONH2], the Kd lay in the range of 1 to 10 nM.

Turning to `CC[C@H](C)[C@H](NC(=O)[C@H]([C@@H](C)O)N(C)C(=O)[C@H](Cc1c[nH]c2ccccc12)NC(C)=O)C(=O)N[C@H]1CSSC[C@@H](C(=O)N[C@@H](Cc2c[nH]c3ccccc23)C(=O)N2CCC[C@H]2C(N)=O)NC(=O)[C@H](CC(=O)O)NC(=O)[C@H](Cc2cnc[nH]2)NC(=O)[C@H](Cc2c[nH]c3ccccc23)NC(=O)[C@H](CC(N)=O)NC(=O)[C@H](CC(N)=O)NC1=O` [compound 383, Ac-W-(NmeT)-I-C(3)-N-N-W-H-D-C(3)-W-P-CONH2] (Ac-W[NMeT]ICNNWHDCWP-NH2; disulfide 4-10), the Kd lay within 100 to 300 nM.

Consider `CC(=O)N[C@@H](Cc1c[nH]c2ccccc12)C(=O)N[C@H](C(=O)N[C@H](C(=O)N[C@H]1CSSC[C@@H](C(=O)N[C@@H](Cc2c[nH]c3ccccc23)C(=O)N2CCC[C@H]2C(N)=O)NC(=O)[C@H](CC(=O)O)NC(=O)[C@H](CCCCNC(=O)C[C@H]2CC[C@H](NC(=O)CN3CCN(CC(=O)O)CCN(CC(=O)O)CCN(CC(=O)O)CC3)CC2)NC(=O)[C@H](Cc2ccc3ccccc3c2)NC(=O)[C@H](CC(N)=O)NC(=O)[C@H](CC2CCNCC2)NC1=O)C1CCCCC1)[C@@H](C)O` [compound 379, Ac-W-T-(Chg)-C(3)-[3-(4-piperidinyl)-Ala]-N-(2Nal)-Lys(Chx-DOTA)-D-C(3)-W-P-CONH2] (Ac-WT[Chg]C[Ala(piperidin-4-yl)]N[2Nal]K(X7)DCWP-NH2; disulfide 4-10), for which the Kd was less than 1 nM.
